Consider two compounds from paper PMC8143618, “Biochemical profiling of anti-HIV prodrug Elsulfavirine (Elpida®) and its active form VM1500A against a panel of twelve human carbonic anhydrase isoforms” (Journal of Enzyme Inhibition and Medicinal Chemistry, 2021).

Details of data set [1]: method as in PMID 28940154. To be noted: cited from earlier work.
The target of another data set is hCA I (Homo sapiens, UniProt P00915). In words: Stopped flow CO2 hydrase assay, hCA I.
The next data set addresses hCA II (Homo sapiens, UniProt P00918). In words: Stopped flow CO2 hydrase assay, hCA II.
In the next data set the target is hCA IV (Homo sapiens, UniProt P22748). In words: Stopped flow CO2 hydrase assay, hCA IV.
hCA IV, sequence (P22748 19-312): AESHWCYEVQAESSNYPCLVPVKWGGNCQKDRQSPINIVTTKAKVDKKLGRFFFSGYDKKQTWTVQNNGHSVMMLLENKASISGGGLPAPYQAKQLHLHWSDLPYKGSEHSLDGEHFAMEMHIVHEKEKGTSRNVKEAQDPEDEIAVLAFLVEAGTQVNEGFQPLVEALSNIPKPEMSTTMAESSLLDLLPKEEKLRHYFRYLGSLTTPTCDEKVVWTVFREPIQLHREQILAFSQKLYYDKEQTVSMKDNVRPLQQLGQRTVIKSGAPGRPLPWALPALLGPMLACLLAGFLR
The next data set deals with hCA VA (Homo sapiens, UniProt P35218). In words: Stopped flow CO2 hydrase assay, hCA VA.
hCA VA, sequence (P35218 39-305): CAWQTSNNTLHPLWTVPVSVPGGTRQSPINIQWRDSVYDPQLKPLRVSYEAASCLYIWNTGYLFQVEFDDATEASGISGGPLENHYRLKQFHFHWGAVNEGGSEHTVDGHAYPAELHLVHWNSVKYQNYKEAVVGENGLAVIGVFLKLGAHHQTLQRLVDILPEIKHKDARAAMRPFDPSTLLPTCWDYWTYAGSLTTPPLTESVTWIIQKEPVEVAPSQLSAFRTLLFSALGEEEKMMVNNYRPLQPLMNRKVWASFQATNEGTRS
The target in the next data set is hCA VB (Homo sapiens, UniProt Q9Y2D0). The data set can be described thus: Stopped flow CO2 hydrase assay, hCA VB.
hCA VB, sequence (Q9Y2D0 34-317): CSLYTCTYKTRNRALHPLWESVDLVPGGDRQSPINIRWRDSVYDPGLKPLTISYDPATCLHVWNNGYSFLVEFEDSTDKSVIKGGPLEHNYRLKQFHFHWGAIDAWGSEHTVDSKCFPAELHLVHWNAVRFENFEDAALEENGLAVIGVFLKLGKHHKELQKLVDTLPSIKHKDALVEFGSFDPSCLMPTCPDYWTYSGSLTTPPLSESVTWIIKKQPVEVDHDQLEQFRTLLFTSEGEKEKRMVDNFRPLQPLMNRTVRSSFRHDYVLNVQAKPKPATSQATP
The target of a further data set is hCA VI (Homo sapiens, UniProt P23280). The data set can be described thus: Stopped flow CO2 hydrase assay, hCA VI.
hCA VI, sequence (P23280 18-308): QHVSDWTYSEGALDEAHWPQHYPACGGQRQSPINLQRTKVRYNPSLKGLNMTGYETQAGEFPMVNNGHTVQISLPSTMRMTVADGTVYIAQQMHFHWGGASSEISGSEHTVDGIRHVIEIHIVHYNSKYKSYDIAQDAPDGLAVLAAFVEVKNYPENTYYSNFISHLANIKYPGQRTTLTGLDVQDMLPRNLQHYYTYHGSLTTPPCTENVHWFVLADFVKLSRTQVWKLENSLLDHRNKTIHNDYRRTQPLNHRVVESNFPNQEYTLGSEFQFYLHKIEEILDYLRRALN
For the next data set, the target named is hCA IX (Homo sapiens, UniProt Q16790). In words: Stopped flow CO2 hydrase assay, hCA IX.
A further data set deals with hCA III (Homo sapiens, UniProt P07451). In words: Stopped flow CO2 hydrase assay, hCA III.
hCA III, sequence (P07451 whole entry): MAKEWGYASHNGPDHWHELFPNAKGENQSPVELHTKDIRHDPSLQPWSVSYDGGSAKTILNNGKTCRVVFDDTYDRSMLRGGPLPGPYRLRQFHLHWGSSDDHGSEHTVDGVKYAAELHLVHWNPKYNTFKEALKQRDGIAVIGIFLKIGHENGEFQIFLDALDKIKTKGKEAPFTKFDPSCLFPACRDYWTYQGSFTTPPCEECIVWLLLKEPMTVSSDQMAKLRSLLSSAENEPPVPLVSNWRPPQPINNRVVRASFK
The target in the next data set is hCA VII (Homo sapiens, UniProt P43166). In words: Stopped flow CO2 hydrase assay, hCA VII.
hCA VII, sequence (P43166 whole entry): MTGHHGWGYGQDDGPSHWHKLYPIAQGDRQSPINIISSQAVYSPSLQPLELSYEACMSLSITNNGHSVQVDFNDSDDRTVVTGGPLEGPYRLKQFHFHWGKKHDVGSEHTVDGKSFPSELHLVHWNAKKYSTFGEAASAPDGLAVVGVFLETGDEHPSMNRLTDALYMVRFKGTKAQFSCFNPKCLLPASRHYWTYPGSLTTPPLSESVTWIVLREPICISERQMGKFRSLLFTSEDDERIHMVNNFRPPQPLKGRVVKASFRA
The next data set concerns the target hCA XII (Homo sapiens, UniProt O43570). The data set can be described thus: Stopped flow CO2 hydrase assay, hCA XII.
The target in a further data set is hCA XIV (Homo sapiens, UniProt Q9ULX7). In words: Stopped flow CO2 hydrase assay, hCA XIV.
hCA XIV, sequence (Q9ULX7 16-337): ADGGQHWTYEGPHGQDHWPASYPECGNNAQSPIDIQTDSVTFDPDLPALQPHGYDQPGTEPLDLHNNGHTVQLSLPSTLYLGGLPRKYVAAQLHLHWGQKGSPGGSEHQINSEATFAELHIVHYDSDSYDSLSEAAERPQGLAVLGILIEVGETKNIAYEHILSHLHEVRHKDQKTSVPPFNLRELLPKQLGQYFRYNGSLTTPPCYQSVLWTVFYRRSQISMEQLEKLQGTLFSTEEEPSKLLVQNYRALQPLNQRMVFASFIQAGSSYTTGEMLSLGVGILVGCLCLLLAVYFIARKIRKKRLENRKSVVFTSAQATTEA
In another data set the target is hCA XIII (Homo sapiens, UniProt Q8N1Q1). In words: Stopped flow CO2 hydrase assay, hCA XIII.
hCA XIII, sequence (Q8N1Q1 whole entry): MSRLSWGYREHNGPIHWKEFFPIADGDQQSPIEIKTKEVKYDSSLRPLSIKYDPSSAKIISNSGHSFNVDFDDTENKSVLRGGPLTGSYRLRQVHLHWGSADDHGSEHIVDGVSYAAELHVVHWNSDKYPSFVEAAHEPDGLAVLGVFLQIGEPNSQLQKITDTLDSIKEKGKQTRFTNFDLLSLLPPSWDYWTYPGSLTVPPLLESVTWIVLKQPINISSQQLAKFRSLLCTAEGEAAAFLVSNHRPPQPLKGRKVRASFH
In a further data set the test system is HIV. To be noted: compared to efavirenz, cited from earlier work.

hCA I, sequence (P00915 whole entry): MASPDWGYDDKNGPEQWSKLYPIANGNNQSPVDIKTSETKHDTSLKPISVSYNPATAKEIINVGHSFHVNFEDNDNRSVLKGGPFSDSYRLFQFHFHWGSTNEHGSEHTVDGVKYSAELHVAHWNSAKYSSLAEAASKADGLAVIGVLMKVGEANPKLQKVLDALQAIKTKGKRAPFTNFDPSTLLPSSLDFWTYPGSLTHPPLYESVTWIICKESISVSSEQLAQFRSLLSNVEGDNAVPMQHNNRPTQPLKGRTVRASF
hCA XII, sequence (O43570 25-354): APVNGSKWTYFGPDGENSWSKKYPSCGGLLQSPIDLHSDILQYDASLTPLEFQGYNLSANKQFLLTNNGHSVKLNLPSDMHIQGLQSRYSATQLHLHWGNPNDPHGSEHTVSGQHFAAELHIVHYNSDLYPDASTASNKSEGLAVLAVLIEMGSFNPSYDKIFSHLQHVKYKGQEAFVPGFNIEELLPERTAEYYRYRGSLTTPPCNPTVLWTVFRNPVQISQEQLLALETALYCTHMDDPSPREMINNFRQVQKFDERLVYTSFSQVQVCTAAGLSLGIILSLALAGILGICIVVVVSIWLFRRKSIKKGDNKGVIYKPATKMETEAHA
Protocol for hCA III: (§1) An Applied Photophysics stopped-flow instrument has been used for assaying the CA-catalysed CO2 hydration activity[11]. […] The uncatalysed rates were determined in the same manner and subtracted from the total observed rates. Stock solutions of inhibitor (0.1 mM) were prepared in distilled-deionised water and dilutions up to 0.01 nM were done thereafter with the assay buffer. […] The inhibition constants were obtained by non-linear least-squares methods using PRISM 3 and the Cheng–Prusoff equation, as reported earlier[12]^,[13] and represent the mean from at least three different determinations.
Protocol for hCA IV: as §1
Protocol for hCA IX: as §1
Protocol for hCA VA: as §1
Protocol for hCA VB: as §1
Protocol for hCA VII: as §1
Protocol for hCA XIII: as §1
Protocol for hCA XIV: as §1

`N#Cc1cc(Cl)cc(Oc2c(Br)ccc(CC(=O)Nc3ccc(S(N)(=O)=O)cc3Cl)c2F)c1` [VM1500A]: the t1/2 of elimination in data set [1] (elimination of active form) is greater than 120 h. Besides, the Ki at hCA I was determined as 0.514 µM; at hCA II it was 0.0355 µM; at hCA IV, 0.158 µM; at hCA VA it was 0.537 µM; at hCA VB it was 0.221 µM; at hCA VI, 0.125 µM. Moreover, the Ki was 0.0721 µM on hCA IX; greater than 100 µM on hCA III; 0.0097 µM on hCA VII; 0.0623 µM on hCA XII; 0.0154 µM on hCA XIV; 0.0522 µM on hCA XIII. Moreover, the “selectivity towards hCA VII over the majority of other hCA isoforms” value at hCA VII (from Ki values) is listed as 1–2 orders of magnitude.
`CCC(=O)NS(=O)(=O)c1ccc(NC(=O)Cc2ccc(Br)c(Oc3cc(Cl)cc(C#N)c3)c2F)c(Cl)c1` [elsulfavirine]: the “t1/2 of conversion to VM1500A” value in data set [1] (conversion of prodrug to active form) is roughly 2 h. Besides, the “tolerability and side effects” value in the data set on HIV (patients) was “superior tolerability and fewer side effects”. In addition, the “virologic response (viral load and HIV RNA reduction)” value in the data set with HIV (treatment-naive patients) is given as “comparable to that of the patients treated with efavirenz”. The inhibition constant (Ki) at hCA I was 52.4 µM; on hCA II it was 12.5 µM; on hCA IV, greater than 100 µM; on hCA VA, 4.29 µM; on hCA VB, 14.2 µM; at hCA VI it was 5.67 µM. For the same compound, the Ki at hCA IX is 6.65 µM; on hCA III, greater than 100 µM; at hCA VII, 2.39 µM; at hCA XIV, 1.96 µM; at hCA XIII, 4.82 µM. The “inhibition of hCA IV (in words)” value at hCA IV (stopped flow CO2 hydrase assay) is reported as “virtually no inhibition”. Besides, on hCA III (stopped flow CO2 hydrase assay), the “inhibition of hCA III (in words)” value was “virtually no inhibition”.
